Consider one compound from patent publication US10434095B2, “3-(1-oxo-4-((4-((3-oxomorpholino)methyl)benzyl)oxy)isoindolin-2-yl)piperidine-2,6-dione and isotopologues thereof” (Celgene Corporation, priority 2017, dated 2019).

The subject of one assay is OBF-1. Nature of the assay: Gene expression (RT-PCR) in differentiated B cells. In kind it is cell-based, human. The following applies: Day 7 differentiated B cells, normalized to 0.1% DMSO; FIG. 3. Here is the method: (§1) Fresh B cell cocktail was prepared by adding 50 μg/mL of human transferrin to B cell medium (Iscove's medium with 10% PFBS, 1% P/S, and 5 μg/mL human insulin). The required volume of medium needed for the experiment was filtered through a 0.22 micron filter. Add B cell differentiation cocktail (final concentration): recombinant human Interleukin (IL)-2 (20 U/mL), IL-10 (50 ng/mL), IL-15 (10 ng/mL), CD40 Ligand/TNFSF5/histidine-tagged (50 ng/mL), polyHistidine mouse IgG1 antibody (5 μg/mL), and ODN 2006-Human TLR9 ligand (10 μg/mL) to cells. Five milliliters (1×10^5/mL) of CD19^+ B cells were added to each well of a 6-well flat-bottom plate (final cell count=5×10^5/well). Five microliters of a 1× solution of compound or DMSO was added to each test well (0.1% final concentration of DMSO) and incubated at 37{dot over (◯)}° C. for 4 days.
(§2) Cells were harvested and counted on the cell counter, an aliquot was removed for flow analysis, and the remaining cells were washed with phosphate buffered saline (PBS). Fresh B cell cocktail was prepared by adding 1 μg/ml of human transferrin to B cell medium (Iscove's medium with 10% PFBS, 1% P/S, and 5 μg/mL human insulin). The required volume of medium needed for the experiment was filtered through a 0.22 micron filter. B cell differentiation cocktail (final concentration) consisting of: recombinant human IL-2 (20 U/mL), IL-10 (50 ng/mL), IL-15 (10 ng/mL), and IL-6 (50 ng/mL) was added to cells. Fresh B cell cocktail was added to cells. Cells were transferred back to the original wells and the volume was adjusted to 5 mL. Five microliters of a 1× solution of compound or DMSO was added to each test well (0.1% final DMSO) and incubated at 37{dot over (◯)}° C. for 3 days.
(§3) On Day 4 and Day 7 cells were harvested and counted on the cell counter. A portion of the cells were then removed for flow analysis and the remaining cells were lysed with RLT buffer and stored at −80° C. for RNA extraction and gene expression. Supernatants were divided into aliquots and frozen at −20° C. for immunoglobulin assays.
(§4) Differentiated B cells (see B Cell Differentiation Assay above) were harvested for total ribonucleic acid (RNA) preparation with a Qiacube RNA extraction instrument (Qiagen, Valencia, Calif.) using QIAGEN RNeasy mini spin-column kits (Catalog #74104). Purified RNA was reverse transcribed into cDNA with thermal cycler (MJ Research, Inc., St. Bruno, Quebec, Canada) using a reverse-transcriptase kit (Applied Biosystems). The gene expression assay was carried out using 7500 real time polymerase chain reaction (RT-PCR) system (Applied Biosystems) in triplicate. A glyceraldehyde 3-phosphate dehydrogenase gene expression assay control was run for each sample and used as a normalization control. For each gene, values for samples within each experiment were normalized to the corresponding 0.1% DMSO treatment value for that particular time point.

Another assay deals with BLIMP-1. Briefly: Gene expression (RT-PCR) in differentiated B cells. In kind it is cell-based, human. As to conditions: Day 7 differentiated B cells, normalized to 0.1% DMSO; FIG. 3. Here is the method:
as §1, §2, §3, §4

In the next assay the test system is BCL-6. Nature of the assay: Gene expression (RT-PCR) in differentiated B cells. In kind it is cell-based, human. The following applies: Day 7 differentiated B cells, normalized to 0.1% DMSO; FIG. 3. How it is done:
as §1, §2, §3, §4

For a further assay, the system named is IgJ. Nature of the assay: Gene expression (RT-PCR) in differentiated B cells. In kind it is cell-based, human. As to conditions: Day 7 differentiated B cells, normalized to 0.1% DMSO; FIG. 3. How it is done:
as §1, §2, §3, §4

The test system of a further assay is IRF-4. Nature of the assay: Gene expression (RT-PCR) in differentiated B cells. In kind it is cell-based, human. As to conditions: Day 7 differentiated B cells, normalized to 0.1% DMSO; FIG. 3. Here is the method:
as §1, §2, §3, §4

The next assay relates to XBP-1. Nature of the assay: Gene expression (RT-PCR) in differentiated B cells. The following applies: Day 7 differentiated B cells, normalized to 0.1% DMSO; FIG. 3. In kind it is cell-based, human. Here is the method: as §1, §2, §3, §4
The subject of the next assay is primary human B cells. Briefly: Cell viability analysis (Trypan blue live cell count) in B cell differentiation culture. In kind it is cell-based. The following applies: cell counts on Day 4 and Day 7 of the 7 day culture; FIG. 2. Here is the method: as §1
(§5) Cells were harvested and counted on the cell counter, an aliquot was removed for flow analysis, and the remaining cells were washed with phosphate buffered saline (PBS). […]
(§6) On Day 4 and Day 7 cells were harvested and counted on the cell counter. […]
To determine live cell count, B cells (see B Cell Differentiation Assay above) were stained with 0.4% Trypan blue (Gibco cat #15250) and live cells counted using the Countess automated cell counter (Invitrogen) in duplicate samples.

The subject of a further assay is IgG production. Nature of the assay: Immunoglobulin assay (ELISA) of plasmablast culture supernatants. In kind it is cell-based, human. The following applies: during plasmablast differentiation; FIG. 5. How it is done: as §1
(§7) Cells were harvested and counted on the cell counter, an aliquot was removed for flow analysis, and the remaining cells were washed with phosphate buffered saline (PBS). Fresh B cell cocktail was prepared by adding 1 μg/ml of human transferrin to B cell medium (Iscove's medium with 10% PFBS, 1% P/S, and 5 μg/mL human insulin). […]
as §6
(§8) Supernatants (see B Cell Differentiation Assay above) were harvested and analyzed by ELISA for IgG and IgM production (ZeptoMetrix Corp, Buffalo, N.Y.).
(In general: An ELISA detects its analyte on a solid surface through an enzyme-linked reagent.)

Another assay relates to IgM production. The description is as above. In kind it is cell-based, human. As to conditions: during plasmablast differentiation; FIG. 4. Here is the method: as §1, §7, §6, §8
The test system of assay [1] is primary human CD19+ B cells differentiating toward the plasma cell lineage. Nature of the assay: B cell differentiation assay, cell phenotyping by flow cytometry (CD20/CD38). In kind it is cell-based. As to conditions: in vitro primary human B cell differentiation culture; FIG. 1. Here is the method:
The effect of Compound I-S on the expression of transcription factors controlling plasma cell differentiation and immunoglobulin production using an in-vitro human B-cell differentiation culture system was invesitaged according to the procedures below:
Twenty-five milliliters human buffy coat were placed into each of two 50-mL conical tubes and 25 mL sterile Hank's buffered saline solution (HBSS) were added to each conical tube. The tubes were gently mixed by inverting. Fifteen milliliters of room temperature Ficoll-Paque Plus (GE Healthcare; Cat#17-1440-02) were placed into each of four 50-mL conical tubes. Then 25 mL of the buffy coat/HBSS mixture were layered gently and slowly on top of the Ficoll. […] The cell pellet was resuspended in 20 mL of B cell medium (Iscove's modified Dulbecco's medium+10% premium fetal bovine serum [PFBS], 1% penicillin/streptomycin [P/S], and 5 μg/mL human insulin), pipetted through a 30 micron filter, and an aliquot was counted using the cell counter.
Aliquots of purified PBMCs (2×10^8 cells) were placed in tubes, centrifuged at 1200 rpm for 5 minutes, and then supernatants were discarded. […] The enriched CD19^+ cells were resuspended in 5 mL of B cell medium and counted on the cell counter. […]
as §5
Background: A flow cytometer gives signals particle by particle.

The structures appear in SMILES notation.

In the case of `O=C1CC[C@H](N2Cc3c(OCc4ccc(CN5CCOCC5=O)cc4)cccc3C2=O)C(=O)N1` [Compound I-S, (S)-3-(1-oxo-4-((4-((3-oxomorpholino)methyl)benzyl)oxy)isoindolin-2-yl)piperidine-2,6-dione], the “expression of plasma cell lineage transcription factor OBF-1” value with OBF-1 was “dose-dependently and significantly inhibited”. Further, the “expression of plasma cell lineage transcription factor BLIMP-1” value in the assay with BLIMP-1 was “dose-dependently and significantly inhibited”. Further, in the assay on BCL-6, the “expression of germinal center lineage B cell transcription factor BCL-6” value is “did not decrease”. Further, the “expression of plasma cell lineage transcription factor IgJ” value with IgJ was “dose-dependently and significantly inhibited”. For the same compound, in the assay on IRF-4, the “expression of plasma cell lineage transcription factor IRF-4” value was “dose-dependently and significantly inhibited”. The “expression of plasma cell lineage transcription factor XBP-1” value in the assay with XBP-1 was “dose-dependently and significantly inhibited”. For the same compound, the “B cell viability (live cell count)” value in the assay with primary human B cells is given as “reduce B cell viability”. In addition, the IgG production result with IgG production is recorded as “significantly inhibited”. Also, the IgM production entry in the assay on IgM production is recorded as “significantly inhibited”. In assay [1], the “percentage of CD20+CD38- activated B cells (ABC)” value was “increased” and the “percentage of CD20-CD38+ plasmablasts (PB)” value is reported as “dose-dependently reduced”.
